Source: patent US9499550B2 (BRISTOL-MYERS SQUIBB COMPANY, priority 2012, dated 2016)
Like-named read-outs stand apart in the source and are kept apart here.

Columns and labels:
[1] = test system: HCV genotype 1a (H77 strain) replicon in HUH-7 cells; experiment: HCV replicon luciferase reporter assay, genotype 1a; type: cell-based; conditions: Hepatitis C virus, Huh-7, 72 h, HCV genotype 1a replicon luciferase, 3 days incubation
How it was run: (§1)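 Replicon inhibition for both genotypes was measured as Renilla luciferase signal (EnduRen, 7.5 μM final, 2 h) after 3-day, 37° C exposure of replicon-bearing HUH-7 cells in 4% FCS DMEM, 0.5% DMSO. The 1b construct carries S1179I; the 1a H77 construct carries P1496L and S2204I. Twenty-point, 3-fold dilutions were fitted four-parametrically for EC50, and CC50 was taken from multiplexed Cell Titer-Blue.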

[2] = test system: HCV genotype 1b (Con1) replicon in HUH-7 cells; experiment: HCV replicon luciferase reporter assay, genotype 1b; type: cell-based; conditions: Hepatitis C virus, Huh-7, 72 h, HCV genotype 1b replicon luciferase, 3 days incubation
How it was run: as §1

## COc1ccc2c(O[C@@H]3C[C@H]4C(=O)N[C@]5(C(=O)NS(=O)(=O)C6(C)CC6)C[C@H]5/C=C\CC[C@@H](C)C[C@@H](C)[C@H](NC(=O)OC(C)(C)C(F)(F)F)C(=O)N4C3)nc3c(c2c1)CCCO3 [Compound 6080, 1,1,1-trifluoro-2-methylpropan-2-yl((2R,6S,7R,9R,13aS,14aR,16aS,Z)-2-((9-methoxy-2,3-dihydro-1H-pyrano[2,3-c]isoquinolin-6-yl)oxy)-7,9-dimethyl-14a-(((1-methylcyclopropyl)sulfonyl)carbamoyl)-5,16-dioxo-1,2,3,5,6,7,8,9,10,11,13a,14,14a,15,16,16a-hexadecahydrocyclopropa[e]pyrrolo[1,2-a][1,4]diazacyclopentadecin-6-yl)carbamate]
[1]; read-out: LE_1a (EC50)
  EC50: 0.31 nM
[1]; read-out: LE_1a (EC50, range)
  EC50: 0.1 to 0.5 nM
[2]; read-out: LE_1b (EC50)
  EC50: 0.79 nM
[2]; read-out: LE_1b (EC50, range)
  EC50: 0.51 to 1 nM

## COc1ccc2c(O[C@@H]3C[C@H]4C(=O)N[C@]5(C(=O)NS(=O)(=O)C6(C)CC6)C[C@H]5/C=C\CC[C@@H](C)C[C@@H](C)[C@H](NC(=O)OC(C)(C)C(C)(F)F)C(=O)N4C3)nc3c(c2c1)CCCO3 [Compound 6082, 3,3-difluoro-2-methylbutan-2-yl((2R,6S,7R,9R,13aS,14aR,16aS,Z)-2-((9-methoxy-2,3-dihydro-1H-pyrano[2,3-c]isoquinolin-6-yl)oxy)-7,9-dimethyl-14a-(((1-methylcyclopropyl)sulfonyl)carbamoyl)-5,16-dioxo-1,2,3,5,6,7,8,9,10,11,13a,14,14a,15,16,16a-hexadecahydrocyclopropa[e]pyrrolo[1,2-a][1,4]diazacyclopentadecin-6-yl)carbamate]
[1]; read-out: LE_1a (EC50, range)
  EC50: 0.51 to 1 nM
[2]; read-out: LE_1b (EC50, range)
  EC50: 1.01 to 5 nM

## COc1ccc2c(O[C@@H]3C[C@H]4C(=O)N[C@]5(C(=O)NS(=O)(=O)C6(C)CC6)C[C@H]5/C=C\CC[C@@H](C)C[C@@H](C)[C@H](NC(=O)OC(C)(C)C(F)F)C(=O)N4C3)nc3c(c2c1)CCCO3 [Compound 6084, 1,1-difluoro-2-methylpropan-2-yl((2R,6S,7R,9R,13aS,14aR,16aS,Z)-2-((9-methoxy-2,3-dihydro-1H-pyrano[2,3-c]isoquinolin-6-yl)oxy)-7,9-dimethyl-14a-(((1-methylcyclopropyl)sulfonyl)carbamoyl)-5,16-dioxo-1,2,3,5,6,7,8,9,10,11,13a,14,14a,15,16,16a-hexadecahydrocyclopropa[e]pyrrolo[1,2-a][1,4]diazacyclopentadecin-6-yl)carbamate]
[1]; read-out: LE_1a (EC50, range)
  EC50: 0.1 to 0.5 nM
[2]; read-out: LE_1b (EC50, range)
  EC50: 0.51 to 1 nM

## CC[C@@H]1C[C@H](C)CC/C=C\[C@@H]2C[C@@]2(C(=O)NS(=O)(=O)C2(CF)CC2)NC(=O)[C@@H]2C[C@@H](Oc3nc4c(c5cc(OC)ccc35)CCCO4)CN2C(=O)[C@H]1NC(=O)OC(C)(C)C(F)(F)F [Compound 6086, 1,1,1-trifluoro-2-methylpropan-2-yl((2R,6S,7R,9R,13aS,14aR,16aS,Z)-7-ethyl-14a-(((1-(fluoromethyl)cyclopropyl)sulfonyl)carbamoyl)-2-((9-methoxy-2,3-dihydro-1H-pyrano[2,3-c]isoquinolin-6-yl)oxy)-9-methyl-5,16-dioxo-1,2,3,5,6,7,8,9,10,11,13a,14,14a,15,16,16a-hexadecahydrocyclopropa[e]pyrrolo[1,2-a][1,4]diazacyclopentadecin-6-yl)carbamate]
[1]; read-out: LE_1a (EC50, range)
  EC50: 5.01 to 35 nM
[2]; read-out: LE_1b (EC50, range)
  EC50: 5.01 to 35 nM

## CC[C@@H]1C[C@H](C)CC/C=C\[C@@H]2C[C@@]2(C(=O)NS(=O)(=O)C2(CF)CC2)NC(=O)[C@@H]2C[C@@H](Oc3nc4c(c5cc(OC)ccc35)CCCO4)CN2C(=O)[C@H]1NC(=O)OC(C)(C)C(C)(F)F [Compound 6088, 3,3-difluoro-2-methylbutan-2-yl((2R,6S,7R,9R,13aS,14aR,16aS,Z)-7-ethyl-14a-(((1-(fluoromethyl)cyclopropyl)sulfonyl)carbamoyl)-2-((9-methoxy-2,3-dihydro-1H-pyrano[2,3-c]isoquinolin-6-yl)oxy)-9-methyl-5,16-dioxo-1,2,3,5,6,7,8,9,10,11,13a,14,14a,15,16,16a-hexadecahydrocyclopropa[e]pyrrolo[1,2-a][1,4]diazacyclopentadecin-6-yl)carbamate]
[1]; read-out: LE_1a (EC50, range)
  EC50: 5.01 to 35 nM
[2]; read-out: LE_1b (EC50, range)
  EC50: 5.01 to 35 nM

## CC[C@@H]1C[C@H](C)CC/C=C\[C@@H]2C[C@@]2(C(=O)NS(=O)(=O)C2(C)CC2)NC(=O)[C@@H]2C[C@@H](Oc3nc4c(c5cc(OC)ccc35)CCCO4)CN2C(=O)[C@H]1NC(=O)OC(C)(C)C(C)(F)F [Compound 6090, 3,3-difluoro-2-methylbutan-2-yl((2R,6S,7R,9R,13aS,14aR,16aS,Z)-7-ethyl-2-((9-methoxy-2,3-dihydro-1H-pyrano[2,3-c]isoquinolin-6-yl)oxy)-9-methyl-14a-(((1-methylcyclopropyl)sulfonyl)carbamoyl)-5,16-dioxo-1,2,3,5,6,7,8,9,10,11,13a,14,14a,15,16,16a-hexadecahydrocyclopropa[e]pyrrolo[1,2-a][1,4]diazacyclopentadecin-6-yl)carbamate]
[1]; read-out: LE_1a (EC50, range)
  EC50: 0.51 to 1 nM
[2]; read-out: LE_1b (EC50, range)
  EC50: 0.51 to 1 nM

## CC[C@@H]1C[C@H](C)CC/C=C\[C@@H]2C[C@@]2(C(=O)NS(=O)(=O)C2(C)CC2)NC(=O)[C@@H]2C[C@@H](Oc3nc4c(c5cc(OC)ccc35)CCCO4)CN2C(=O)[C@H]1NC(=O)OC(C)(C)C(F)F [Compound 6092, 1,1-difluoro-2-methylpropan-2-yl((2R,6S,7R,9R,13aS,14aR,16aS,Z)-7-ethyl-2-((9-methoxy-2,3-dihydro-1H-pyrano[2,3-c]isoquinolin-6-yl)oxy)-9-methyl-14a-(((1-methylcyclopropyl)sulfonyl)carbamoyl)-5,16-dioxo-1,2,3,5,6,7,8,9,10,11,13a,14,14a,15,16,16a-hexadecahydrocyclopropa[e]pyrrolo[1,2-a][1,4]diazacyclopentadecin-6-yl)carbamate]
[1]; read-out: LE_1a (EC50, range)
  EC50: 1.01 to 5 nM
[2]; read-out: LE_1b (EC50, range)
  EC50: 1.01 to 5 nM

## CC[C@@H]1C[C@H](C)CC/C=C\[C@@H]2C[C@@]2(C(=O)NS(=O)(=O)C2(C)CC2)NC(=O)[C@@H]2C[C@@H](Oc3nc4c(c5cc(OC)ccc35)CCCO4)CN2C(=O)[C@H]1NC(=O)OC(C)(C)C(F)(F)F [Compound 6095, 1,1,1-trifluoro-2-methylpropan-2-yl((2R,6S,7R,9R,13aS,14aR,16aS,Z)-7-ethyl-2-((9-methoxy-2,3-dihydro-1H-pyrano[2,3-c]isoquinolin-6-yl)oxy)-9-methyl-14a-(((1-methylcyclopropyl)sulfonyl)carbamoyl)-5,16-dioxo-1,2,3,5,6,7,8,9,10,11,13a,14,14a,15,16,16a-hexadecahydrocyclopropa[e]pyrrolo[1,2-a][1,4]diazacyclopentadecin-6-yl)carbamate]
[1]; read-out: LE_1a (EC50, range)
  EC50: 0.51 to 1 nM
[2]; read-out: LE_1b (EC50, range)
  EC50: 0.1 to 0.5 nM

## CC(C)Oc1cc2ccccc2c(O[C@@H]2C[C@H]3C(=O)N[C@]4(C(=O)NS(=O)(=O)C5(C)CC5)C[C@H]4/C=C\CC[C@@H](C)C[C@@H](C)[C@H](NC(=O)OC(C)(C)C)C(=O)N3C2)n1 [Compound 6098, tert-butyl ((2R,6S,7R,9R,13aS,14aR,16aS,Z)-2-((3-isopropoxyisoquinolin-1-yl)oxy)-7,9-dimethyl-14a-(((1-methylcyclopropyl)sulfonyl)carbamoyl)-5,16-dioxo-1,2,3,5,6,7,8,9,10,11,13a,14,14a,15,16,16a-hexadecahydrocyclopropa[e]pyrrolo[1,2-a][1,4]diazacyclopentadecin-6-yl)carbamate]
[1]; read-out: LE_1a (EC50, range)
  EC50: 0.51 to 1 nM
[2]; read-out: LE_1b (EC50, range)
  EC50: 0.1 to 0.5 nM

## CCOc1cc2ccccc2c(O[C@@H]2C[C@H]3C(=O)N[C@]4(C(=O)NS(=O)(=O)C5(C)CC5)C[C@H]4/C=C\CC[C@H](C)C[C@@H](C)[C@H](NC(=O)OC(C)(C)C(F)(F)F)C(=O)N3C2)n1 [Compound 6099, 1,1,1-trifluoro-2-methylpropan-2-yl((2R,6S,7R,9S,13aS,14aR,16aS,Z)-2-((3-ethoxyisoquinolin-1-yl)oxy)-7,9-dimethyl-14a-(((1-methylcyclopropyl)sulfonyl)carbamoyl)-5,16-dioxo-1,2,3,5,6,7,8,9,10,11,13a,14,14a,15,16,16a-hexadecahydrocyclopropa[e]pyrrolo[1,2-a][1,4]diazacyclopentadecin-6-yl)carbamate]
[1]; read-out: LE_1a (EC50, range)
  EC50: 1.01 to 5 nM
[2]; read-out: LE_1b (EC50, range)
  EC50: 1.01 to 5 nM

## CCOc1cc2ccccc2c(O[C@@H]2C[C@H]3C(=O)N[C@]4(C(=O)NS(=O)(=O)C5(C)CC5)C[C@H]4/C=C\CC[C@@H](C)C[C@@H](C)[C@H](NC(=O)OC(C)(C)C(F)(F)F)C(=O)N3C2)n1 [Compound 6100, 1,1,1-trifluoro-2-methylpropan-2-yl((2R,6S,7R,9R,13aS,14aR,16aS,Z)-2-((3-ethoxyisoquinolin-1-yl)oxy)-7,9-dimethyl-14a-(((1-methylcyclopropyl)sulfonyl)carbamoyl)-5,16-dioxo-1,2,3,5,6,7,8,9,10,11,13a,14,14a,15,16,16a-hexadecahydrocyclopropa[e]pyrrolo[1,2-a][1,4]diazacyclopentadecin-6-yl)carbamate]
[1]; read-out: LE_1a (EC50, range)
  EC50: 1.01 to 5 nM
[2]; read-out: LE_1b (EC50, range)
  EC50: 0.1 to 0.5 nM

## CCOc1cc2ccccc2c(O[C@@H]2C[C@H]3C(=O)N[C@]4(C(=O)NS(=O)(=O)C5(C)CC5)C[C@H]4/C=C\CC[C@@H](C)C[C@@H](C)[C@H](NC(=O)OC(C)(C)C(C)(F)F)C(=O)N3C2)n1 [Compound 6102, 3,3-difluoro-2-methylbutan-2-yl((2R,6S,7R,9R,13aS,14aR,16aS,Z)-2-((3-ethoxyisoquinolin-1-yl)oxy)-7,9-dimethyl-14a-(((1-methylcyclopropyl)sulfonyl)carbamoyl)-5,16-dioxo-1,2,3,5,6,7,8,9,10,11,13a,14,14a,15,16,16a-hexadecahydrocyclopropa[e]pyrrolo[1,2-a][1,4]diazacyclopentadecin-6-yl)carbamate]
[1]; read-out: LE_1a (EC50, range)
  EC50: 0.51 to 1 nM
[2]; read-out: LE_1b (EC50, range)
  EC50: 0.1 to 0.5 nM
